# Test results published in patent US12371464B2, “Polypeptides and uses thereof” (MEDIMMUNE LIMITED, priority 2020, dated 2025).
# Numbered stars: 1 amine (or outer) side, 2 acyl side, 3 side chain; on linkers, the order of the positions; unused ones are H or OH. Bridge positions count the residues as written; N and C are the ends. Square brackets hold non-standard residues; d marks the D form. Side chains are listed from the residue outwards. Peptide text beside a SMILES is read from it. * marks the point of attachment. C18 diacid = O=C(O)CCCCCCCCCCCCCCCCC(=O)*; γGlu = O=C(O)[C@H](CCC(=O)[*:2])N[*:1]; αMeF = C[C@](N)(Cc1ccccc1)C(=O)O; Dab = NCC[C@H](N)C(=O)O; Aib = CC(C)(N)C(=O)O
# Test: Thioflavin T fibrillation assay
# Format: physicochemical
# Conditions: 1 mg/mL in 25 mM sodium acetate buffer pH 4.0, 37° C., 6 days, orbital shaking; >144 h = no increase
# Procedure, shortened: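 Peptides at 1 mg/mL in 25 mM sodium acetate pH 4.0 were mixed with ThT (0.25 mM stock) and held 6 days at 37 °C with intermittent orbital shaking at 500–750 rpm. Fluorescence (ex 444/em 480 nm) was read every 30 min, with buffer baseline correction and 5 replicates. Value: mean time to a detectable fluorescence increase.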
row,Time taken to detect increase in fluorescence intensity [h],SMILES
1,<5,"CC[C@H](C)[C@H](NC(=O)[C@@H]1CCCN1C(=O)CNC(=O)[C@H](Cc1ccccc1)NC(=O)[C@H](CC(N)=O)NC(=O)[C@H](CC(N)=O)NC(=O)[C@H](CO)NC(=O)[C@H](CO)NC(=O)[C@H](Cc1c[nH]cn1)NC(=O)[C@@H](NC(=O)[C@H](CC(C)C)NC(=O)[C@H](Cc1ccccc1)NC(=O)[C@H](CC(N)=O)NC(=O)[C@H](C)NC(=O)[C@H](CC(C)C)NC(=O)[C@H](CCCNC(=N)N)NC(=O)[C@H](CCC(N)=O)NC(=O)[C@@H](NC(=O)[C@H](C)NC(=O)[C@@H]1CSSC[C@H](NC(=O)[C@@H](N)CCCCNC(=O)CC[C@H](NC(=O)CCCCCCCCCCCCCCCCC(=O)O)C(=O)O)C(=O)N[C@@H](CC(N)=O)C(=O)N[C@@H]([C@@H](C)O)C(=O)N[C@@H](C)C(=O)N[C@@H]([C@@H](C)O)C(=O)N1)[C@@H](C)O)C(C)C)C(=O)N[C@H](CC(C)C)C(=O)N1CCC[C@H]1C(=O)N1CCC[C@H]1C(=O)N[C@H](C(=O)N[C@@H](CC(N)=O)C(=O)N[C@H](C(=O)NCC(=O)N[C@@H](CO)C(=O)N[C@@H](CC(N)=O)C(=O)N[C@H](C(=O)N[C@@H](Cc1ccc(O)cc1)C(N)=O)[C@@H](C)O)C(C)C)[C@@H](C)O [Peptide 103, K(γE-C18diacid)[CNTATC]ATQRLANFLVHSSNNFGPI(dL)PPTNVGSNTY-amide] (H-K([γGlu-C18 diacid])CNTATCATQRLANFLVHSSNNFGPI[dL]PPTNVGSNTY-NH2; disulfide 2-7; N-terminus assumed)"
2,>144,CC[C@H](C)[C@H](NC(=O)[C@@H]1CCCN1C(=O)CNC(=O)[C@H](Cc1ccccc1)NC(=O)[C@H](CC(N)=O)NC(=O)[C@H](CC(N)=O)NC(=O)[C@H](CO)NC(=O)[C@H](CO)NC(=O)[C@H](Cc1c[nH]cn1)NC(=O)C(C)(C)NC(=O)[C@H](CC(C)C)NC(=O)[C@H](Cc1ccccc1)NC(=O)[C@H](CCN)NC(=O)[C@H](C)NC(=O)[C@H](CC(C)C)NC(=O)[C@H](CCCNC(=N)N)NC(=O)[C@H](CCC(N)=O)NC(=O)[C@@H](NC(=O)[C@H](C)NC(=O)[C@@H]1CSSC[C@H](NC(=O)[C@H](CCCCN)NC(=O)[C@@H](N)CCCCNC(=O)CC[C@H](NC(=O)CCCCCCCCCCCCCCCCC(=O)O)C(=O)O)C(=O)N[C@@H](CC(N)=O)C(=O)N[C@@H]([C@@H](C)O)C(=O)N[C@@H](C)C(=O)N[C@@H]([C@@H](C)O)C(=O)N1)[C@@H](C)O)C(=O)N[C@@H](CC(C)C)C(=O)N1CCC[C@H]1C(=O)N1CCC[C@H]1C(=O)N[C@H](C(=O)N[C@@H](CCC(=O)O)C(=O)N[C@H](C(=O)NCC(=O)N[C@@H](CO)C(=O)N[C@@H](CC(N)=O)C(=O)N[C@H](C(=O)N[C@@H](Cc1ccc(O)cc1)C(N)=O)[C@@H](C)O)C(C)C)[C@@H](C)O [Peptide 156] (H-K([γGlu-C18 diacid])KCNTATCATQRLA[Dab]FL[Aib]HSSNNFGPILPPTEVGSNTY-NH2; disulfide 3-8; N-terminus assumed)
3,7,"CC[C@H](C)[C@H](NC(=O)[C@H](C)NC(=O)[C@@H]1CCCN1C(=O)[C@H](Cc1ccccc1)NC(=O)[C@H](CC(N)=O)NC(=O)[C@H](CCN)NC(=O)[C@H](CO)NC(=O)[C@H](CO)NC(=O)[C@H](Cc1c[nH]cn1)NC(=O)[C@@H](NC(=O)[C@H](CC(C)C)NC(=O)[C@H](Cc1ccccc1)NC(=O)[C@H](CC(N)=O)NC(=O)[C@H](C)NC(=O)[C@H](CC(C)C)NC(=O)[C@H](CCCNC(=N)N)NC(=O)[C@H](CCC(N)=O)NC(=O)[C@@H](NC(=O)[C@H](C)NC(=O)[C@@H]1CSSC[C@H](NC(=O)[C@@H](N)CCCCNC(=O)CC[C@H](NC(=O)CC[C@H](NC(=O)CCCCCCCCCCCCCCCCC(=O)O)C(=O)O)C(=O)O)C(=O)N[C@@H](CC(N)=O)C(=O)N[C@@H]([C@@H](C)O)C(=O)N[C@@H](C)C(=O)N[C@@H]([C@@H](C)O)C(=O)N1)[C@@H](C)O)C(C)C)C(=O)N[C@@H](CC(C)C)C(=O)N[C@@H](CO)C(=O)N1CCC[C@H]1C(=O)N[C@H](C(=O)N[C@@H](CC(N)=O)C(=O)N[C@H](C(=O)NCC(=O)N[C@@H](CO)C(=O)N[C@@H](CC(N)=O)C(=O)N[C@H](C(=O)N[C@@H](Cc1ccc(O)cc1)C(N)=O)[C@@H](C)O)C(C)C)[C@@H](C)O [Peptide 8, K(γE-γE-C18diacid)[CNTATC]ATQRLANFLVHSS(Dab)NFPAILSPTNVGSNTY-amide] (H-K([γGlu-γGlu-C18 diacid])CNTATCATQRLANFLVHSS[Dab]NFPAILSPTNVGSNTY-NH2; disulfide 2-7; N-terminus assumed)"
4,7,CC[C@H](C)[C@H](NC(=O)[C@@H]1CCCN1C(=O)CNC(=O)[C@H](Cc1ccccc1)NC(=O)[C@H](CC(N)=O)NC(=O)[C@H](CC(N)=O)NC(=O)[C@H](CO)NC(=O)[C@H](CO)NC(=O)[C@H](Cc1c[nH]cn1)NC(=O)[C@@H](NC(=O)[C@H](CC(C)C)NC(=O)[C@H](Cc1ccccc1)NC(=O)[C@H](CC(N)=O)NC(=O)[C@H](C)NC(=O)[C@H](CC(C)C)NC(=O)[C@H](CCCNC(=N)N)NC(=O)[C@H](CCC(N)=O)NC(=O)[C@@H](NC(=O)[C@H](C)NC(=O)[C@@H]1CSSC[C@H](NC(=O)[C@@H](N)CCCCNC(=O)CC[C@H](NC(=O)CC[C@H](NC(=O)CCCCCCCCCCCCCCCCC(=O)O)C(=O)O)C(=O)O)C(=O)N[C@@H](CC(N)=O)C(=O)N[C@@H]([C@@H](C)O)C(=O)N[C@@H](C)C(=O)N[C@@H]([C@@H](C)O)C(=O)N1)[C@@H](C)O)C(C)C)C(=O)N[C@@H](CC(C)C)C(=O)N1CCC[C@H]1C(=O)N1CCC[C@H]1C(=O)N[C@H](C(=O)N[C@@H](CC(N)=O)C(=O)N[C@H](C(=O)NCC(=O)N[C@@H](CO)C(=O)N[C@@H](CC(N)=O)C(=O)N[C@H](C(=O)N[C@@H](Cc1ccc(O)cc1)C(N)=O)[C@@H](C)O)C(C)C)[C@@H](C)O [Peptide 5] (H-K([γGlu-γGlu-C18 diacid])CNTATCATQRLANFLVHSSNNFGPILPPTNVGSNTY-NH2; disulfide 2-7; N-terminus assumed)
5,>144,"CC[C@H](C)[C@H](NC(=O)[C@@H]1CCCN1C(=O)CNC(=O)[C@](C)(Cc1ccccc1)NC(=O)[C@H](CC(N)=O)NC(=O)[C@H](CC(N)=O)NC(=O)[C@H](CO)NC(=O)[C@H](CO)NC(=O)[C@H](Cc1c[nH]cn1)NC(=O)[C@H](CCCNC(=N)N)NC(=O)[C@H](CC(C)C)NC(=O)[C@H](Cc1ccccc1)NC(=O)[C@H](CCC(=O)O)NC(=O)[C@H](C)NC(=O)[C@H](CC(C)C)NC(=O)[C@H](CCCNC(=N)N)NC(=O)[C@H](CCC(N)=O)NC(=O)[C@@H](NC(=O)[C@H](C)NC(=O)[C@@H]1CSSC[C@H](NC(=O)CC[C@H](NC(=O)CCCCCCCCCCCCCCCCC(=O)O)C(=O)O)C(=O)N[C@@H](CC(N)=O)C(=O)N[C@@H]([C@@H](C)O)C(=O)N[C@@H](C)C(=O)N[C@@H]([C@@H](C)O)C(=O)N1)[C@@H](C)O)C(=O)N[C@@H](CC(C)C)C(=O)N1CCC[C@H]1C(=O)N1CCC[C@H]1C(=O)N[C@H](C(=O)N[C@@H](CC(N)=O)C(=O)N[C@H](C(=O)NCC(=O)N[C@@H](CO)C(=O)N[C@@H](CC(N)=O)C(=O)N[C@H](C(=O)N[C@@H](Cc1ccc(O)cc1)C(N)=O)[C@@H](C)O)C(C)C)[C@@H](C)O [Peptide 10, C18diacid-γE-[CNTATC]ATQRLAEFLRHSSNN(αMePhe)GPILPPTNVGSNTY-amide] ({C18 diacid-γGlu}-CNTATCATQRLAEFLRHSSNN[αMeF]GPILPPTNVGSNTY-NH2; disulfide 1-6)"
6,>144,"CC[C@H](C)[C@H](NC(=O)[C@@H]1CCCN1C(=O)CNC(=O)[C@H](Cc1ccccc1)NC(=O)[C@H](CC(N)=O)NC(=O)C(C)(C)NC(=O)[C@H](CO)NC(=O)[C@H](CO)NC(=O)[C@H](Cc1c[nH]cn1)NC(=O)[C@H](CCCNC(=N)N)NC(=O)[C@H](CC(C)C)NC(=O)[C@H](Cc1ccccc1)NC(=O)[C@H](CC(N)=O)NC(=O)[C@H](C)NC(=O)[C@H](CC(C)C)NC(=O)[C@H](CCCNC(=N)N)NC(=O)[C@H](CCC(N)=O)NC(=O)[C@@H](NC(=O)[C@H](C)NC(=O)[C@@H]1CSSC[C@H](NC(=O)[C@@H](N)CCCCNC(=O)CC[C@H](NC(=O)CCCCCCCCCCCCCCCCC(=O)O)C(=O)O)C(=O)N[C@@H](CC(N)=O)C(=O)N[C@@H]([C@@H](C)O)C(=O)N[C@@H](C)C(=O)N[C@@H]([C@@H](C)O)C(=O)N1)[C@@H](C)O)C(=O)N[C@@H](CC(C)C)C(=O)N1CCC[C@H]1C(=O)N1CCC[C@H]1C(=O)N[C@H](C(=O)N[C@@H](CC(N)=O)C(=O)N[C@H](C(=O)NCC(=O)N[C@@H](CO)C(=O)N[C@@H](CC(N)=O)C(=O)N[C@H](C(=O)N[C@@H](Cc1ccc(O)cc1)C(N)=O)[C@@H](C)O)C(C)C)[C@@H](C)O [Peptide 48, K(γE-C18diacid)[CNTATC]ATQRLANFLRHSS(Aib)NFGPILPPTNVGSNTY-amide] (H-K([γGlu-C18 diacid])CNTATCATQRLANFLRHSS[Aib]NFGPILPPTNVGSNTY-NH2; disulfide 2-7; N-terminus assumed)"

# Same assay, conditions: as seen in Table 7
row,fibril-forming tendency on conjugating pramlintide to a lipid,SMILES
1,increases the fibril-forming tendency,CC[C@H](C)[C@H](NC(=O)[C@@H]1CCCN1C(=O)CNC(=O)[C@H](Cc1ccccc1)NC(=O)[C@H](CC(N)=O)NC(=O)[C@H](CC(N)=O)NC(=O)[C@H](CO)NC(=O)[C@H](CO)NC(=O)[C@H](Cc1c[nH]cn1)NC(=O)[C@@H](NC(=O)[C@H](CC(C)C)NC(=O)[C@H](Cc1ccccc1)NC(=O)[C@H](CC(N)=O)NC(=O)[C@H](C)NC(=O)[C@H](CC(C)C)NC(=O)[C@H](CCCNC(=N)N)NC(=O)[C@H](CCC(N)=O)NC(=O)[C@@H](NC(=O)[C@H](C)NC(=O)[C@@H]1CSSC[C@H](NC(=O)[C@@H](N)CCCCNC(=O)CC[C@H](NC(=O)CC[C@H](NC(=O)CCCCCCCCCCCCCCCCC(=O)O)C(=O)O)C(=O)O)C(=O)N[C@@H](CC(N)=O)C(=O)N[C@@H]([C@@H](C)O)C(=O)N[C@@H](C)C(=O)N[C@@H]([C@@H](C)O)C(=O)N1)[C@@H](C)O)C(C)C)C(=O)N[C@@H](CC(C)C)C(=O)N1CCC[C@H]1C(=O)N1CCC[C@H]1C(=O)N[C@H](C(=O)N[C@@H](CC(N)=O)C(=O)N[C@H](C(=O)NCC(=O)N[C@@H](CO)C(=O)N[C@@H](CC(N)=O)C(=O)N[C@H](C(=O)N[C@@H](Cc1ccc(O)cc1)C(N)=O)[C@@H](C)O)C(C)C)[C@@H](C)O [Peptide 5] (H-K([γGlu-γGlu-C18 diacid])CNTATCATQRLANFLVHSSNNFGPILPPTNVGSNTY-NH2; disulfide 2-7; N-terminus assumed)
